Measurements as given in ChEMBL document CHEMBL1201862, “PubChem BioAssay data set” (2004).
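Cultured in 96-well plates, cells were exposed to test compound for 48 hours across five concentrations. GI50 is the concentration that inhibits growth by half.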 Activity calls are given as the source filed them. Cut-off read from the data, not from the text of the source: active = GI50 up to about 1.1 µM and inactive = higher.

What was measured:
Assay in all cases: inhibition of tumour cell growth, NCI panel, 48 h
MOLT-4 = tested on: MOLT-4
NCI-H460 = tested on: NCI-H460
UACC-257 = tested on: UACC-257
SN12C = tested on: SN12C
KM-20L2 = tested on: KM-20L2
K562 = tested on: K562
NCI-H23 = tested on: NCI-H23
HOP-62 = tested on: HOP-62
SNB-78 = tested on: SNB-78
DMS-273 = tested on: DMS-273
NCI-H226 = tested on: NCI-H226
HCT-15 = tested on: HCT-15
EKVX = tested on: EKVX
RXF 393 = tested on: RXF 393
LOX IMVI = tested on: LOX IMVI
SNB-75 = tested on: SNB-75
M14 = tested on: M14
OVCAR-4 = tested on: OVCAR-4
SK-MEL-28 = tested on: SK-MEL-28
HT-29 = tested on: HT-29
SW-620 = tested on: SW-620
COLO 205 = tested on: COLO 205
OVCAR-5 = tested on: OVCAR-5
CCRF-CEM = tested on: CCRF-CEM
HCT-116 = tested on: HCT-116
HL-60 = tested on: HL-60
U-251 = tested on: U-251
OVCAR-3 = tested on: OVCAR-3
786-0 = tested on: 786-0
LXFL 529 = tested on: LXFL 529
CAKI-1 = tested on: CAKI-1
UACC-62 = tested on: UACC-62
IGROV-1 = tested on: IGROV-1
ACHN = tested on: ACHN
A549 = tested on: A549
KM12 = tested on: KM12
DLD-1 = tested on: DLD-1
HCC 2998 = tested on: HCC 2998
SF-539 = tested on: SF-539
SF-268 = tested on: SF-268
OVCAR-8 = tested on: OVCAR-8
TK-10 = tested on: TK-10
SF-295 = tested on: SF-295
SNB-19 = tested on: SNB-19
DMS-114 = tested on: DMS-114
A498 = tested on: A498
SK-MEL-2 = tested on: SK-MEL-2
SR = tested on: SR
RPMI-8226 = tested on: RPMI-8226
UO-31 = tested on: UO-31
NCI-H522 = tested on: NCI-H522
Malme-3M = tested on: Malme-3M
M19-MEL = tested on: M19-MEL
SK-MEL-5 = tested on: SK-MEL-5
HOP-92 = tested on: HOP-92
XF498 = tested on: XF498
SK-OV-3 = tested on: SK-OV-3

CCOC(=O)c1cnc2cc3cccccc3n2c1=O
GI50 (MOLT-4): > 100 µM (inactive)
GI50 (NCI-H460): > 100 µM (inactive)
GI50 (UACC-257): > 100 µM (inactive)
GI50 (SN12C): > 100 µM (inactive)
GI50 (KM-20L2): > 100 µM (inactive)
GI50 (K562): > 100 µM (inactive)
GI50 (NCI-H23): > 100 µM (inactive)
GI50 (HOP-62): > 100 µM (inactive)
GI50 (SNB-78): > 100 µM (inactive)
GI50 (DMS-273): 31.8 µM (inactive)
GI50 (NCI-H226): > 100 µM (inactive)
GI50 (HCT-15): > 100 µM
GI50 (EKVX): > 100 µM (inactive)
GI50 (RXF 393): > 100 µM (inactive)
GI50 (LOX IMVI): > 100 µM (inactive)
GI50 (SNB-75): 97.5 µM (inactive)
GI50 (M14): > 100 µM (inactive)
GI50 (OVCAR-4): > 100 µM (inactive)
GI50 (SK-MEL-28): > 100 µM (inactive)
GI50 (HT-29): > 100 µM (inactive)
GI50 (SW-620): > 100 µM (inactive)
GI50 (COLO 205): > 100 µM (inactive)
GI50 (OVCAR-5): > 100 µM (inactive)
GI50 (CCRF-CEM): > 100 µM (inactive)
GI50 (HCT-116): 39.3 µM (inactive)
GI50 (HL-60): > 100 µM (inactive)
GI50 (U-251): > 100 µM (inactive)
GI50 (OVCAR-3): > 100 µM (inactive)
GI50 (786-0): > 100 µM (inactive)
GI50 (LXFL 529): > 100 µM (inactive)
GI50 (CAKI-1): > 100 µM (inactive)
GI50 (UACC-62): > 100 µM (inactive)
GI50 (IGROV-1): > 100 µM (inactive)
GI50 (ACHN): > 100 µM (inactive)
GI50 (A549): > 100 µM (inactive)
GI50 (KM12): 60.7 µM (inactive)
GI50 (DLD-1): > 100 µM (inactive)
GI50 (HCC 2998): > 100 µM (inactive)
GI50 (SF-539): > 100 µM (inactive)
GI50 (SF-268): > 100 µM (inactive)
GI50 (OVCAR-8): > 100 µM (inactive)
GI50 (TK-10): > 100 µM (inactive)
GI50 (SF-295): > 100 µM (inactive)
GI50 (SNB-19): > 100 µM (inactive)
GI50 (DMS-114): 35 µM (inactive)
GI50 (A498): > 100 µM (inactive)
GI50 (SK-MEL-2): > 100 µM (inactive)
GI50 (SR): 45 µM (inactive)
GI50 (RPMI-8226): > 100 µM (inactive)
GI50 (UO-31): > 100 µM (inactive)

O=C1N[C@H](Cc2c[nH]cn2)C(=O)N2CCC[C@@H]12
GI50 (MOLT-4): > 100 µM (inactive)
GI50 (NCI-H460): > 100 µM (inactive)
GI50 (UACC-257): > 100 µM (inactive)
GI50 (SN12C): > 100 µM (inactive)
GI50 (KM-20L2): > 100 µM (inactive)
GI50 (K562): > 100 µM (inactive)
GI50 (NCI-H23): > 100 µM (inactive)
GI50 (HOP-62): > 100 µM (inactive)
GI50 (NCI-H522): > 100 µM (inactive)
GI50 (SNB-78): > 100 µM (inactive)
GI50 (DMS-273): > 100 µM (inactive)
GI50 (HCT-15): > 100 µM
GI50 (EKVX): > 100 µM (inactive)
GI50 (Malme-3M): > 100 µM (inactive)
GI50 (RXF 393): > 100 µM (inactive)
GI50 (LOX IMVI): > 100 µM (inactive)
GI50 (SNB-75): 65.8 µM (inactive)
GI50 (M14): > 100 µM (inactive)
GI50 (OVCAR-4): > 100 µM (inactive)
GI50 (SK-MEL-28): > 100 µM (inactive)
GI50 (SW-620): > 100 µM (inactive)
GI50 (COLO 205): > 100 µM (inactive)
GI50 (OVCAR-5): > 100 µM (inactive)
GI50 (CCRF-CEM): > 100 µM (inactive)
GI50 (HL-60): > 100 µM (inactive)
GI50 (M19-MEL): > 100 µM (inactive)
GI50 (OVCAR-3): > 100 µM (inactive)
GI50 (786-0): > 100 µM (inactive)
GI50 (LXFL 529): > 100 µM (inactive)
GI50 (CAKI-1): > 100 µM (inactive)
GI50 (UACC-62): > 100 µM (inactive)
GI50 (IGROV-1): > 100 µM (inactive)
GI50 (ACHN): > 100 µM (inactive)
GI50 (A549): > 100 µM (inactive)
GI50 (KM12): > 100 µM (inactive)
GI50 (SK-MEL-5): > 100 µM (inactive)
GI50 (DLD-1): > 100 µM (inactive)
GI50 (HOP-92): > 100 µM (inactive)
GI50 (HCC 2998): > 100 µM (inactive)
GI50 (XF498): > 100 µM (inactive)
GI50 (SF-268): > 100 µM (inactive)
GI50 (OVCAR-8): > 100 µM (inactive)
GI50 (TK-10): > 100 µM (inactive)
GI50 (SF-295): > 100 µM (inactive)
GI50 (SNB-19): > 100 µM (inactive)
GI50 (DMS-114): > 100 µM (inactive)
GI50 (SK-MEL-2): > 100 µM (inactive)
GI50 (RPMI-8226): > 100 µM (inactive)
GI50 (UO-31): > 100 µM (inactive)
GI50 (SK-OV-3): > 100 µM (inactive)

CCCC(C)C[C@@H](C)CC(C)/C=C(\C)c1oc(=O)c(C)c(O)c1C.CC[C@@H](C)C[C@@H](C)C[C@@H](C)/C=C(\C)c1oc(=O)c(C)c(O)c1C (some centres undefined)
GI50 (NCI-H460): 9.29 µM (inactive)
GI50 (UACC-257): 14.7 µM (inactive)
GI50 (SN12C): 15.3 µM (inactive)
GI50 (KM-20L2): 12.6 µM (inactive)
GI50 (NCI-H23): 10 µM (inactive)
GI50 (HOP-62): 18.7 µM (inactive)
GI50 (NCI-H522): 14.8 µM (inactive)
GI50 (SNB-78): 20.9 µM (inactive)
GI50 (DMS-273): 18.5 µM (inactive)
GI50 (NCI-H226): 15.5 µM (inactive)
GI50 (EKVX): 15.2 µM (inactive)
GI50 (Malme-3M): 3.56 µM (inactive)
GI50 (RXF 393): 13.4 µM (inactive)
GI50 (LOX IMVI): 17.1 µM (inactive)
GI50 (SNB-75): 13.6 µM (inactive)
GI50 (M14): 15.5 µM (inactive)
GI50 (OVCAR-4): 10.4 µM (inactive)
GI50 (SK-MEL-28): 14.8 µM (inactive)
GI50 (HT-29): 13.9 µM (inactive)
GI50 (SW-620): 17.7 µM (inactive)
GI50 (COLO 205): 28.2 µM (inactive)
GI50 (OVCAR-5): 6.19 µM (inactive)
GI50 (HCT-116): 17.6 µM (inactive)
GI50 (HL-60): 13.6 µM (inactive)
GI50 (M19-MEL): 10 µM (inactive)
GI50 (U-251): 14.5 µM (inactive)
GI50 (OVCAR-3): 6.78 µM (inactive)
GI50 (786-0): 14.5 µM (inactive)
GI50 (LXFL 529): 13.2 µM (inactive)
GI50 (CAKI-1): 13.4 µM (inactive)
GI50 (ACHN): 5.57 µM (inactive)
GI50 (A549): 17.3 µM (inactive)
GI50 (KM12): 20.4 µM (inactive)
GI50 (DLD-1): 13.5 µM (inactive)
GI50 (HCC 2998): 12.9 µM (inactive)
GI50 (SF-539): 15.4 µM (inactive)
GI50 (SF-268): 14.1 µM (inactive)
GI50 (OVCAR-8): 20.3 µM (inactive)
GI50 (TK-10): 19.5 µM (inactive)
GI50 (SF-295): 12.8 µM (inactive)
GI50 (SNB-19): 14.2 µM (inactive)
GI50 (DMS-114): 16.8 µM (inactive)
GI50 (SK-MEL-2): 9.48 µM (inactive)
GI50 (UO-31): 13.6 µM (inactive)
